Data from patent US11602540B2, “Method for stimulating blood flow in a penile region of a patient” (BMR MEDICAL LLC, priority 2016, dated 2023).

Assay: treatment of diffuse plaque by carbon dioxide injection into affected corpus tissues
Type: in vivo, patient
Conditions: injection directly into affected corpus tissues
From the text: In addition to the above treatment method embodiments, Applicants have discovered that injection(s) of carbon dioxide is/are also effective to treat a condition related to Peyronie's disease known as “diffuse plaque” comprising plaque that has not assimilated into any hardened singular construct within the penis, but remains in a “diffuse” state throughout. The preferred treatment method is injection(s) of carbon dioxide directly into the affected corpus tissues to treat the diffuse plaque. This form of carbon dioxide injection treatment may be continued until the diffuse plaque has been sufficiently mitigated or eliminated. Preferably, if more than one carbon dioxide injection is required, then the second injection location is optimally spaced away from the location of the first carbon dioxide injection. As above, the “dose” of each carbon dioxide injection(s) is considered to be “therapeutically effective” which is defined as described above in conjunction with “carboxy therapy”.
FIG. 10 illustrates one method 900 for treating diffuse plaque using the above-described method steps. Thus, the “diffuse plaque” condition is identified or diagnosed within at least one corpus cavernosa at 902. […] After the initial round of administration/injection(s) of carbon dioxide is complete, the results may be assessed to see if the plaque is mitigated at 908. […]

In the case of `O=C=O` [carbon dioxide], the “effectiveness in treating diffuse plaque” value is reported as “effective”.
